Reference: US20250186391A1, “ORAL COMPLEMENT FACTOR D INHIBITORS” (BioCryst Pharmaceuticals, Inc., priority 2019, published 2025)

target: Factor D (Homo sapiens (Human), UniProt P00746); assay: Factor D esterolytic assay; format: biochemical; details: Z-Lys-SBzl substrate, 100 mM HEPES, 500 mM NaCl, pH 7.5, 10% DMSO; tested a minimum of three times; read-out: Measured Ki (IC50) Value for Compounds: IC50
Method in brief: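 Chromogenic thioesterase read-out: Z-Lys-SBzl (1.29 mM) hydrolysis by human Factor D, thiol detected with DTNB at 405 nm (690 nm background subtracted) for 600 s. Run in 100 mM HEPES, 500 mM NaCl, pH 7.5, 10% DMSO, substrate added immediately or after room-temperature preincubation. IC50 from percent inhibition versus enzyme alone, n≥3.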

Factor D, sequence (P00746 26-253): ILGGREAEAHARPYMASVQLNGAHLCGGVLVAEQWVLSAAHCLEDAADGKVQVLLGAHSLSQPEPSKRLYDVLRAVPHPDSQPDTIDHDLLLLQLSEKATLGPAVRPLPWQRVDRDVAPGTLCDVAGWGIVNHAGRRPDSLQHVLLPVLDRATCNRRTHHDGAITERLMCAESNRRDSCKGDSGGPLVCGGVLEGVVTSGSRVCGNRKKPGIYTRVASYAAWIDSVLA

SMILES | IC50
COc1cccc(OCc2coc3ccc(-c4cccc(CN)c4)cc23)c1CC(=O)O [Compound 109d, 2-(2-((5-(3-(aminomethyl)phenyl)benzofuran-3-yl)methoxy)-6-methoxyphenyl)acetic acid] | 1000 to 10000 nM
NCc1cccc(-c2ccc3occ(COc4c(CC(=O)O)cccc4C(N)=O)c3c2)c1 [Compound 114i, 2-(2-((5-(3-(aminomethyl)phenyl)benzofuran-3-yl)methoxy)-3-carbamoylphenyl)acetic acid] | 1000 to 10000 nM
Cn1nc(COc2ccccc2CC(=O)O)c2cc(-c3cccc(CN)c3)ccc21 [Compound 117d, 2-(2-((5-(3-(aminomethyl)phenyl)-1-methyl-1H-indazol-3-yl)methoxy)phenyl)acetic acid] | < 1000 nM
NCc1cccc(-c2ccc3occ(COc4cc(C(F)(F)F)ccc4CC(=O)O)c3c2)c1 [Compound 118d, 2-(2-((5-(3-(aminomethyl)phenyl)benzofuran-3-yl)methoxy)-4-(trifluoromethyl)phenyl)acetic acid] | < 1000 nM
CC(Oc1ccccc1CC(=O)O)c1coc2ccc(-c3cccc(CN)c3)cc12 (stereo not drawn) [Compound 119d, 2-(2-(1-(5-(3-(aminomethyl)phenyl)benzofuran-3-yl)ethoxy)phenyl)acetic acid] | < 1000 nM
NCc1cccc(-c2cc(C3CC3)c3occ(COc4ccccc4CC(=O)O)c3c2)c1 [Compound 120c, 2-(2-((5-(3-(aminomethyl)phenyl)-7-cyclopropylbenzofuran-3-yl)methoxy)phenyl)acetic acid] | < 1000 nM

Next, values leading:

IC50 | SMILES
< 1000 nM | COc1ccc(OCc2coc3ccc(-c4cccc(CN)c4)cc23)c(CC(=O)O)c1 [Compound 106c, 2-(2-((5-(3-(aminomethyl)phenyl)benzofuran-3-yl)methoxy)-5-methoxyphenyl)acetic acid]
< 1000 nM | Cc1cccc(CC(=O)O)c1OCc1coc2ccc(-c3cccc(CN)c3)cc12 [Compound 107d, 2-(2-((5-(3-(aminomethyl)phenyl)benzofuran-3-yl)methoxy)-3-methylphenyl)acetic acid]
< 1000 nM | Cc1cccc(OCc2coc3ccc(-c4cccc(CN)c4)cc23)c1CC(=O)O [Compound 108d, 2-(2-((5-(3-(aminomethyl)phenyl)benzofuran-3-yl)methoxy)-6-methylphenyl)acetic acid]
< 1000 nM | NCc1cccc(-c2ccc3occ(COc4cc(OC(F)(F)F)ccc4CC(=O)O)c3c2)c1 [Compound 110d, 2-(2-((5-(3-(aminomethyl)phenyl)benzofuran-3-yl)methoxy)-4-(trifluoromethoxy)phenyl)acetic acid]
< 1000 nM | NCc1cccc(-c2ccc3occ(COc4cc(C5CC5)ccc4CC(=O)O)c3c2)c1 [Compound 111d, 2-(2-((5-(3-(aminomethyl)phenyl)benzofuran-3-yl)methoxy)-4-cyclopropylphenyl)acetic acid]
< 1000 nM | NCc1cccc(-c2ccc3oc(CO)c(COc4ccccc4CC(=O)O)c3c2)c1 [Compound 112c, 2-(2-((5-(3-(aminomethyl)phenyl)-2-(hydroxymethyl)benzofuran-3-yl)methoxy)phenyl)acetic acid]
< 1000 nM | NCc1cccc(-c2cc(C(F)(F)F)c3occ(COc4ccccc4CC(=O)O)c3c2)c1 [Compound 113g, 2-(2-((5-(3-(aminomethyl)phenyl)-7-(trifluoromethyl)benzofuran-3-yl)methoxy)phenyl)acetic acid]
< 1000 nM | N#Cc1cccc(CC(=O)O)c1OCc1coc2ccc(-c3cccc(CN)c3)cc12 [Compound 115c, 2-(2-((5-(3-(aminomethyl)phenyl)benzofuran-3-yl)methoxy)-3-cyanophenyl)acetic acid]
< 1000 nM | CN1CCN(Cc2ccc(-c3cc(-c4cccc(CN)c4)cc4c(COc5ccccc5CC(=O)O)coc34)cc2)CC1 [Compound 116d, 2-(2-((5-(3-(aminomethyl)phenyl)-7-(4-((4-methylpiperazin-1-yl)methyl)phenyl)benzofuran-3-yl)methoxy)phenyl)acetic acid]
